The values below come from patent US10030020B2, “Spirocycle compounds and methods of making and using same” (Abide Therapeutics, Inc., priority 2016, dated 2018).

A word on the IC50: it is the concentration that inhibits the measured activity by half. Higher therefore signals lower potency.

Test [1] has as its target T1, FAAH (Mus musculus (Mouse), UniProt O08914). The experiment in a line: In vitro competitive activity-based protein profiling (mouse brain membrane fraction or cell lysates), FAAH band. In kind it is biochemical. Particulars: for inhibition at 1 µM: read-out: FAAH % Inh 1 μM (mouse). A digest of the protocol: (§1)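 Mouse proteome samples (brain membrane fraction or cell lysate, 1.0 mg/mL protein) were pretreated with varying inhibitor concentrations and subsequently probed with fluorophosphonate-rhodamine, each step lasting 30 min at 37° C. Labelled proteins were separated by SDS-PAGE, and band fluorescence was imaged and quantified.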

For test [2], the target named is T2, MAGL (Mus musculus (Mouse), UniProt O35678). The experiment in a line: In vitro competitive activity-based protein profiling (mouse brain membrane fraction or cell lysates), MAGL band. It counts as biochemical. Particulars: for inhibition at 1 µM: read-out: MAGL % Inh 1 μM (mouse). As to the method: In Vitro Competitive Activity-Based Protein Profiling.
Proteomes (mouse brain membrane fraction or cell lysates) (50 μL, 1.0 mg/mL total protein concentration) were preincubated with varying concentrations of inhibitors at 37° C. After 30 min, FP—Rh (1.0 μL, 50 μM in DMSO) was added and the mixture was incubated for another 30 min at 37° C. Reactions were quenched with SDS loading buffer (50 μL-4×) and run on SDS-PAGE.

Test [3] addresses T2, MAGL. The experiment in a line: Mouse brain proteomes from inhibitor treated mice (oral gavage, sacrificed 4 h after administration, ABPP analysis). It counts as in vivo, mouse (C57Bl/6J). The following applies: 5 mg/kg oral gavage. A digest of the protocol: (§2)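 Compounds were given by oral gavage to wild-type C57Bl/6J mice in a vehicle such as PEG400/Ethanol/PBS (7/2/1). Animals were sacrificed 4 h after dosing, and brain proteomes were prepared and analyzed by established ABPP methods. Values are % inhibition at 5 mg/kg.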

Test [4] has as its target T3, ABHD6 (Mus musculus (Mouse), UniProt Q8R2Y0). The experiment in a line: Mouse brain proteomes from inhibitor treated mice (oral gavage, sacrificed 4 h after administration, ABPP analysis), ABHD6. In kind it is in vivo, mouse (C57Bl/6J). Particulars: 5 mg/kg oral gavage. A digest of the protocol: as §2
Test [5] has as its target MAGL (Homo sapiens (Human), UniProt Q99685). Kind of test: In vitro competitive activity-based protein profiling (human prefrontal cortex or cell membrane fractions; hMAGL expressed in HEK293T cells). In kind it is biochemical. As to the method:
In Vitro Competitive Activity-Based Protein Profiling (Human).
Proteomes (human prefrontal cortex or cell membrane fractions) (50 μL, 1.0-2.0 mg/mL total protein concentration) were preincubated with varying concentrations of inhibitors at 37° C. After 30 min, FP—Rh or JW912 (1.0 μL, 50 μM in DMSO) was added and the mixture was incubated for another 30 min at room temperature. Reactions were quenched with SDS loading buffer (15 μL-4×) and run on SDS-PAGE.
Recombinant Expression of Human MAGL in HEK293T Cells.
Cell lysates were diluted with mock proteomes for use in competitive ABPP experiments.

Test [6] has as its target T1, FAAH. The experiment in a line: Mouse brain proteomes from inhibitor treated mice (oral gavage, sacrificed 4 h after administration, ABPP analysis), FAAH. In kind it is in vivo, mouse (C57Bl/6J). Particulars: 5 mg/kg oral gavage. A digest of the protocol:
as §2

Test [7] concerns the target T3, ABHD6. Kind of test: In vitro competitive activity-based protein profiling (mouse brain membrane fraction or cell lysates), ABHD6 band. In kind it is biochemical. Particulars: for inhibition at 1 µM: read-out: ABHD6 % Inh 1 μM (mouse). A digest of the protocol:
as §1

Setting [8] is: human proteome, competitive ABPP.
Setting [9] is: mouse proteome, competitive ABPP.

SMILES strings stand for the structures. Where two headings read alike, the source gives them in different places.

T1 sequence (O08914 whole entry): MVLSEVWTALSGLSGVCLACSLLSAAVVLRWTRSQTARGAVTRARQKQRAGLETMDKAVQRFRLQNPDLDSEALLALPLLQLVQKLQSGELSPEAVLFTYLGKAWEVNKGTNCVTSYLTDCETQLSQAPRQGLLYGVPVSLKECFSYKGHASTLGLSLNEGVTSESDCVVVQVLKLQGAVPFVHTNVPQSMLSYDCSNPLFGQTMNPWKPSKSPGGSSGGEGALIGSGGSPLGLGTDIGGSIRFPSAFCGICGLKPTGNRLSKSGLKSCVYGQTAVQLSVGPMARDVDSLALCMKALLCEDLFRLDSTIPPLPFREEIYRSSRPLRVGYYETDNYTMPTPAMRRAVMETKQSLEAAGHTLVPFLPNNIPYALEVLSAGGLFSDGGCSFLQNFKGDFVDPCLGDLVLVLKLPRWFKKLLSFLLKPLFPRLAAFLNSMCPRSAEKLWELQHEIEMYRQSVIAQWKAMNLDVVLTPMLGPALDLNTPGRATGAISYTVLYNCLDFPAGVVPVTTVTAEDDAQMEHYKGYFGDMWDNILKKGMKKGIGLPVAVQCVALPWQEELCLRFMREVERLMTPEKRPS
T3 sequence (Q8R2Y0 whole entry): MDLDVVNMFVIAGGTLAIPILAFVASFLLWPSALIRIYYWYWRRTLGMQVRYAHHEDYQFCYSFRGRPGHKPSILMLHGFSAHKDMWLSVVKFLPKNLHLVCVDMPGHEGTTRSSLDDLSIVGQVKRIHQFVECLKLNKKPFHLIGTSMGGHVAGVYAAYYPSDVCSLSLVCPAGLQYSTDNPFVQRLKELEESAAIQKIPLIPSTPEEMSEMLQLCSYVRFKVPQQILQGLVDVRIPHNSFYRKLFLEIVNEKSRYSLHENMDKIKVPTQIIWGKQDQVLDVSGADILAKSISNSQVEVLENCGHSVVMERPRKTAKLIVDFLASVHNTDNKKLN
T2 sequence (O35678 whole entry): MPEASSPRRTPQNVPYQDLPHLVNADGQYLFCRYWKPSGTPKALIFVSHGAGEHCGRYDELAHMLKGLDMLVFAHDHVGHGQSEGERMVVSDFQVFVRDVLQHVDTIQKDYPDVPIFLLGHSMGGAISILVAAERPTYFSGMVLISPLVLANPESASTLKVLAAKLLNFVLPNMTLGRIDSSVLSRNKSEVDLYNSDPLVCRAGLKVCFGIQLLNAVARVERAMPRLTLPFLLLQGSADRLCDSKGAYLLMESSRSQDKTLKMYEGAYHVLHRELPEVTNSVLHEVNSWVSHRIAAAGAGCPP
MAGL (Homo sapiens (Human), UniProt Q99685), sequence (Q99685 whole entry): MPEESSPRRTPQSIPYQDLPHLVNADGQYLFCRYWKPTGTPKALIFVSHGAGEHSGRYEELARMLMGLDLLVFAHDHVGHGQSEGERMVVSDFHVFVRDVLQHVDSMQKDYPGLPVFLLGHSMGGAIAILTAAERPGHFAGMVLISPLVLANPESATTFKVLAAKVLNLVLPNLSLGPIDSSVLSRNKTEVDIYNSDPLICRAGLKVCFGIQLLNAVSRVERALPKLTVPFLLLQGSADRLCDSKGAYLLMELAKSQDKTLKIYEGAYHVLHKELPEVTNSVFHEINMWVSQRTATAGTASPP

Take `O=C(O)C1COCCN1c1cc(CN2CCCC23CCN(C(=O)OC(C(F)(F)F)C(F)(F)F)CC3)cc(C(F)(F)F)c1` (stereo not drawn) [Example 200]: the inhibition at 1 µM at FAAH [1] (mouse proteome) is under 25%; on MAGL [2] (mouse proteome) it was over 75%; on ABHD6 [7] (mouse proteome) it was under 25%. At MAGL [3], the “MAGL % Inh 5 mg/kg (mouse)” value is reported as “## (## is equal to or greater than 25% but less than 75%)”. For the same compound, the “ABHD6 % Inh 5 mg/kg (mouse)” value at ABHD6 [4] was “# (# is <25%)”. On MAGL [5] (setting [8]), this compound had an IC50 of under 0.1 µM. Also, the “FAAH % Inh 5 mg/kg (mouse)” value on FAAH [6] is given as “# (# is <25%)”.
Regarding `CC1(C(=O)O)CCCN(c2cc(C(F)(F)F)ccc2CN2CCC3(CCN(C(=O)OC(C(F)(F)F)C(F)(F)F)CC3)C2)C1` (stereo not drawn) [Example 216], the inhibition at 1 µM was under 25% on FAAH [1] (mouse proteome), over 75% on MAGL [2] (mouse proteome) and 25 to 75% on ABHD6 [7] (mouse proteome). For the same compound, the “MAGL % Inh 5 mg/kg (mouse)” value on MAGL [3] was “## (## is equal to or greater than 25% but less than 75%)”. For the same compound, the “ABHD6 % Inh 5 mg/kg (mouse)” value on ABHD6 [4] is “# (# is <25%)”. The IC50 on MAGL [5] (setting [8]) is under 0.1 µM. At FAAH [6], the “FAAH % Inh 5 mg/kg (mouse)” value is recorded as “# (# is <25%)”.
As for `O=C(O)C1CN(c2cc(C(F)(F)F)ccc2CN2CCCC23CCN(C(=O)OC(C(F)(F)F)C(F)(F)F)CC3)CCO1` (stereo not drawn) [Example 197, 4-(2-((8-(((1,1,1,3,3,3-Hexafluoropropan-2-yl)oxy)carbonyl)-1,8-diazaspiro[4.5]decan-1-yl)methyl)-5-(trifluoromethyl)phenyl)morpholine-2-carboxylic acid], the figures for the inhibition at 1 µM at FAAH [1] (mouse proteome), at MAGL [2] (mouse proteome) and at ABHD6 [7] (mouse proteome) were under 25%, over 75% and 25 to 75%, respectively. In addition, the IC50 was over 1 µM on FAAH [1] (setting [9]), 0.1 to 1 µM on MAGL [2] (setting [9]), under 0.1 µM at MAGL [5] (setting [8]) and over 1 µM on ABHD6 [7] (setting [9]). At MAGL [3], the “MAGL % Inh 5 mg/kg (mouse)” value is reported as “# (# is <25%)”. Also, the “ABHD6 % Inh 5 mg/kg (mouse)” value on ABHD6 [4] is recorded as “# (# is <25%)”. At FAAH [6], the “FAAH % Inh 5 mg/kg (mouse)” value is on record as “# (# is <25%)”.
For `O=C(OC(C(F)(F)F)C(F)(F)F)N1CCC2(CCCN2Cc2ccc(C(F)(F)F)c(N3CCCC3)c2)CC1` [Example 134, 1,1,1,3,3,3-Hexafluoropropan-2-yl 1-(3-(pyrrolidin-1-yl)-4-(trifluoromethyl)benzyl)-1,8-diazaspiro[4.5]decane-8-carboxylate], the inhibition at 1 µM on FAAH [1] (mouse proteome) is under 25%; at MAGL [2] (mouse proteome), over 75%; at ABHD6 [7] (mouse proteome) it was under 25%. The IC50 on FAAH [1] (setting [9]) was over 1 µM; at MAGL [2] (setting [9]), under 0.1 µM; at MAGL [5] (setting [8]), under 0.1 µM; at ABHD6 [7] (setting [9]), over 1 µM. In addition, the “MAGL % Inh 5 mg/kg (mouse)” value at MAGL [3] was “### (### is ≥75%)”. Besides, the “ABHD6 % Inh 5 mg/kg (mouse)” value at ABHD6 [4] was “# (# is <25%)”. Moreover, on FAAH [6], the “FAAH % Inh 5 mg/kg (mouse)” value is reported as “# (# is <25%)”.
Regarding `O=C(O)C1CCN(Cc2cc(C(F)(F)F)ccc2CN2CCCC23CCN(C(=O)OC(C(F)(F)F)C(F)(F)F)CC3)CC1` [Example 238], the figures for the inhibition at 1 µM at FAAH [1] (mouse), on MAGL [2] (mouse) and at ABHD6 [7] (mouse) were under 25%, over 75% and under 25%, respectively. The half-maximal inhibitory concentration (IC50) at FAAH [1] (mouse) was over 1 µM; on MAGL [2] (mouse), 0.1 to 1 µM; on MAGL [5] (human), under 0.1 µM; on ABHD6 [7] (mouse), over 1 µM. Further, the “MAGL % Inh 5 mg/kg (mouse)” value on MAGL [3] is “### (### is ≥75%)”. On ABHD6 [4], the “ABHD6 % Inh 5 mg/kg (mouse)” value was “# (# is <25%)”. Also, at FAAH [6], the “FAAH % Inh 5 mg/kg (mouse)” value is listed as “# (# is <25%)”.
As for `CS(=O)(=O)C1CCN(c2cc(C(F)(F)F)ccc2CN2CCCC23CCN(C(=O)OC(C(F)(F)F)C(F)(F)F)CC3)CC1` [Example 267], the results for the inhibition at 1 µM on FAAH [1] (mouse), at MAGL [2] (mouse) and on ABHD6 [7] (mouse) were under 25%, over 75% and at least 75%, respectively. The “MAGL % Inh 5 mg/kg (mouse)” value at MAGL [3] is “# (# is <25%)”. Moreover, the “ABHD6 % Inh 5 mg/kg (mouse)” value on ABHD6 [4] is recorded as “# (# is <25%)”. This compound yielded a 50% inhibitory concentration (IC50) at MAGL [5] (human) of under 0.1 µM. Also, at FAAH [6], the “FAAH % Inh 5 mg/kg (mouse)” value is given as “# (# is <25%)”.
